Where a name gives a salt, the structure may show the parent alone.
System: T1, primary mouse cortical neurons
T1 construct: primary cortical neurons, DIV 10
Test: cells
Design: Protection from NMDA-induced (30 uM, 10 min) neuronal death; Hoechst nuclear morphology by automated microscopy
Conditions: Cortical neurone, 20 h, read-out: % inhibition, inhibition of NMDA-induced cell death (protection score), 30 min pre-treatment
Outline: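 On DIV 10, primary mouse cortical neurons were given compound at 10 μM for 30 min at 37 °C, then 30 μM NMDA for 10 min, washed, and kept 20 h with compound. Dead cells were scored by nuclear morphology, and % protection was derived from survival relative to vehicle + NMDA and untreated controls.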

Compound: CC(=O)O[C@]1(C(C)=O)CC[C@H]2[C@@H]3C=C(C)C4=CC(=O)CC[C@]4(C)[C@H]3CC[C@@]21C [Megestrol Acetate]
- inhibition at 10 µM: -7.04%

Compound: S=c1[nH]cnc2nc[nH]c12 [Mercaptopurine]
- inhibition at 10 µM: -8.52%

Compound: Nc1ccc(O)c(C(=O)O)c1 [Mesalamine (Lialda)]
- inhibition at 10 µM: 21.8%

Compound: O=S(=O)(O)CCS [Mesna (Uromitexan, Mesnex)]
- inhibition at 10 µM: -0.811%

Compound: C#C[C@]1(O)CC[C@H]2[C@@H]3CCc4cc(OC)ccc4[C@H]3CC[C@@]21C [Mestranol]
- inhibition at 10 µM: 11.8%

Compound: CN(C)C(=N)NC(=N)N [Metformin hydrochloride (Glucophage)]
- inhibition at 10 µM: 10.2%

Compound: C=C1c2cccc(O)c2C(O)=C2C(=O)[C@]3(O)C(O)=C(C(N)=O)C(=O)[C@@H](N(C)C)[C@@H]3[C@@H](O)[C@H]12 [Methacycline hydrochloride (Physiomycine)]
- inhibition at 10 µM: 13.5%

Compound: Cn1nnc2c(C(N)=O)ncn2c1=O [Methazolastone]
- inhibition at 10 µM: 14.3%

Compound: Cn1ccnc1S [Methimazole (Tapazole, Northyx)]
- inhibition at 10 µM: 15.5%

Compound: COc1ccccc1OCC(O)COC(N)=O (stereo not shown) [Methocarbamol (Robaxin)]
- inhibition at 10 µM: -0.235%

Compound: COc1c2occc2cc2ccc(=O)oc12 [Methoxsalen (Oxsoralen)]
- inhibition at 10 µM: -4.76%

Compound: COc1ccc([C@@H]2CC(=O)c3c(O)cc(O[C@@H]4O[C@H](CO[C@@H]5O[C@@H](C)[C@H](O)[C@@H](O)[C@H]5O)[C@@H](O)[C@H](O)[C@H]4O)cc3O2)cc1OC [Methyl-Hesperidin]
- inhibition at 10 µM: -2.33%

Compound: C[C@H]1C[C@@H]2[C@H]([C@@H](O)C[C@@]3(C)[C@H]2CC[C@]3(O)C(=O)CO)[C@@]2(C)C=CC(=O)C=C12 [Methylprednisolone]
- inhibition at 10 µM: 7.52%

Compound: Cc1ccccc1N1C(=O)c2cc(S(N)(=O)=O)c(Cl)cc2NC1C (stereo not shown) [Metolazone (Zaroxolyn)]
- inhibition at 10 µM: 27.9%

Compound: CN1CCN2c3ccccc3Cc3ccccc3C2C1 (stereo not shown) [Mianserin hydrochloride]
- inhibition at 10 µM: -2.1%

Compound: Cc1[nH]c(=O)c(C#N)cc1-c1ccncc1 [Milrinone (Primacor)]
- inhibition at 10 µM: -10.4%

Compound: N=c1nc(N2CCCCC2)cc(N)n1O [Minoxidil]
- inhibition at 10 µM: -1.14%

Compound: CC[C@@]1([C@@H]2O[C@@H]([C@H]3O[C@@](O)(CO)[C@H](C)C[C@@H]3C)C[C@@H]2C)CC[C@H]([C@]2(C)CC[C@]3(C[C@H](O)[C@@H](C)[C@@H]([C@@H](C)[C@@H](OC)[C@H](C)C(=O)O)O3)O2)O1 [Monensin sodium salt (Coban)]
- inhibition at 10 µM: 3.22%

Compound: Oc1ccc(OCc2ccccc2)cc1 [Monobenzone (Benoquin)]
- inhibition at 10 µM: 49.3%

Compound: O=c1c(O)c(-c2ccc(O)cc2O)oc2cc(O)cc(O)c12 [Morin hydrate (Aurantica)]
- inhibition at 10 µM: -2.71%

Compound: N=C(N)NC(=N)N1CCOCC1 [Moroxydine]
- inhibition at 10 µM: 0.926%

Compound: COc1c(N2C[C@@H]3CCCN[C@@H]3C2)c(F)cc2c(=O)c(C(=O)O)cn(C3CC3)c12 [Moxifloxacin hydrochloride]
- inhibition at 10 µM: 0.0291%

Compound: COc1c(C)c2c(c(O)c1C/C=C(\C)CCC(=O)OCCN1CCOCC1)C(=O)OC2 [Mycophenolate mofetil (CellCept)]
- inhibition at 10 µM: 4.41%

Compound: COc1c(C)c2c(c(O)c1C/C=C(\C)CCC(=O)O)C(=O)OC2 [Mycophenolic (Mycophenolate)]
- inhibition at 10 µM: -10.2%

Compound: O=c1c(O)c(-c2cc(O)c(O)c(O)c2)oc2cc(O)cc(O)c12 [Myricetin (Cannabiscetin)]
- inhibition at 10 µM: -1.08%

Compound: C[C@@H]1O[C@@H](Oc2c(-c3cc(O)c(O)c(O)c3)oc3cc(O)cc(O)c3c2=O)[C@H](O)[C@H](O)[C@H]1O [Myricitrin (Myricitrine)]
- inhibition at 10 µM: -2.22%

Compound: COc1ccccc1N1CCN(CC(O)COc2cccc3ccccc23)CC1 (stereo not shown) [Naftopidil (Flivas)]
- inhibition at 10 µM: -8.14%

Compound: CCn1cc(C(=O)O)c(=O)c2ccc(C)nc21 [Nalidixic acid (NegGram)]
- inhibition at 10 µM: -2.4%

Compound: c1ccc2c(CC3=NCCN3)cccc2c1 [Naphazoline hydrochloride (Naphcon)]
- inhibition at 10 µM: -0.842%

Compound: O=C1C[C@@H](c2ccc(O)cc2)Oc2cc(O)cc(O)c21 [Naringenin]
- inhibition at 10 µM: -3.44%

Compound: C[C@@H]1O[C@@H](O[C@H]2[C@H](Oc3cc(O)c4c(c3)O[C@H](c3ccc(O)cc3)CC4=O)O[C@H](CO)[C@@H](O)[C@@H]2O)[C@H](O)[C@H](O)[C@H]1O [Naringin (Naringoside)]
- inhibition at 10 µM: -0.553%

Compound: C[C@@H]1O[C@@H](O[C@H]2[C@H](Oc3cc(O)c(C(=O)CCc4ccc(O)cc4)c(O)c3)O[C@H](CO)[C@@H](O)[C@@H]2O)[C@H](O)[C@H](O)[C@H]1O [Naringin Dihydrochalcone (Naringin DC)]
- inhibition at 10 µM: 7.97%

Compound: C[C@@H]1C/C=C/C=C/C=C/C=C/[C@H](O[C@@H]2O[C@H](C)[C@@H](O)[C@H](N)[C@@H]2O)C[C@@H]2O[C@](O)(C[C@@H](O)C[C@H]3O[C@@H]3/C=C/C(=O)O1)C[C@H](O)[C@H]2C(=O)O [Natamycin (Pimaricin)]
- inhibition at 10 µM: -0.639%

Compound: CC(C)[C@H]1CC[C@H](C(=O)N[C@H](Cc2ccccc2)C(=O)O)CC1 [Nateglinide (Starlix)]
- inhibition at 10 µM: 42.4%

Compound: O[C@@H](CNC[C@H](O)[C@H]1CCc2cc(F)ccc2O1)[C@@H]1CCc2cc(F)ccc2O1 [Nebivolol (Bystolic)]
- inhibition at 10 µM: -2.64%

Compound: Cc1cccc(C)c1NC(=O)CN1CCCC1=O [Nefiracetam (Translon)]
- inhibition at 10 µM: 7.17%

Compound: COc1nc(N)nc2c1ncn2[C@@H]1O[C@H](CO)[C@@H](O)[C@@H]1O [Nelarabine (Arranon)]
- inhibition at 10 µM: -9.06%

Compound: COc1ccc(CCC(=O)c2c(O)cc(O[C@@H]3O[C@H](CO)[C@@H](O)[C@H](O)[C@H]3O[C@@H]3O[C@@H](C)[C@H](O)[C@@H](O)[C@H]3O)cc2O)cc1O [Neohesperidin dihydrochalcone (Nhdc)]
- inhibition at 10 µM: -3.39%

Compound: COc1ccc([C@@H]2CC(=O)c3c(O)cc(O[C@@H]4O[C@H](CO)[C@@H](O)[C@H](O)[C@H]4O[C@@H]4O[C@@H](C)[C@H](O)[C@@H](O)[C@H]4O)cc3O2)cc1O [Neohesperidin]
- inhibition at 10 µM: 4.46%

Compound: NC[C@@H]1O[C@H](O[C@H]2[C@@H](O)[C@H](O[C@@H]3[C@@H](O)[C@H](N)C[C@H](N)[C@H]3O[C@H]3O[C@H](CN)[C@@H](O)[C@H](O)[C@H]3N)O[C@@H]2CO)[C@H](N)[C@@H](O)[C@@H]1O [Neomycin sulfate]
- inhibition at 10 µM: -1.47%

Compound: CN(C)C(=O)Oc1cccc([N+](C)(C)C)c1 [Neostigmine bromide (Prostigmin)]
- inhibition at 10 µM: -0.504%

Compound: NC(=O)Cc1cccc(C(=O)c2ccccc2)c1N [Nepafenac]
- inhibition at 10 µM: -12.2%

Compound: Cc1ccnc2c1NC(=O)c1cccnc1N2C1CC1 [Nevirapine (Viramune)]
- inhibition at 10 µM: 9.64%

Compound: O=C(O)c1cccnc1 [Niacin (Nicotinic acid)]
- inhibition at 10 µM: -0.509%

Compound: O=C(NCCO[N+](=O)[O-])c1cccnc1 [Nicorandil (Ikorel)]
- inhibition at 10 µM: 51%

Compound: NC(=O)c1cccnc1 [Nicotinamide (Niacinamide)]
- inhibition at 10 µM: -2.77%

Compound: Cc1cn(-c2cc(NC(=O)c3ccc(C)c(Nc4nccc(-c5cccnc5)n4)c3)cc(C(F)(F)F)c2)cn1 [Nilotinib (AMN-107)]
- inhibition at 10 µM: -7.37%

Compound: COCCOC(=O)C1=C(C)NC(C)=C(C(=O)OC(C)C)C1c1cccc([N+](=O)[O-])c1 (stereo not shown) [Nimodipine (Nimotop)]
- inhibition at 10 µM: -0.576%

Compound: COC(=O)C1=C(C)NC(C)=C(C(=O)OCC(C)C)C1c1ccccc1[N+](=O)[O-] (stereo not shown) [Nisoldipine (Sular)]
- inhibition at 10 µM: -2.86%

Compound: NC(=O)N/N=C/c1ccc([N+](=O)[O-])o1 [Nitrofurazone (Nitrofural)]
- inhibition at 10 µM: 29.8%

Compound: CNC(=C[N+](=O)[O-])NCCSCc1csc(CN(C)C)n1 [Nizatidine]
- inhibition at 10 µM: -2.67%

Compound: COc1ccc(-c2cc(=O)c3c(OC)c(OC)c(OC)c(OC)c3o2)cc1OC [Nobiletin (Hexamethoxyflavone)]
- inhibition at 10 µM: -0.471%

Compound: CCn1cc(C(=O)O)c(=O)c2cc(F)c(N3CCNCC3)cc21 [Norfloxacin (Norxacin)]
- inhibition at 10 µM: 2.34%

Compound: CO[C@@H]1[C@@H](OC(N)=O)[C@@H](O)[C@H](Oc2ccc3c(O)c(NC(=O)c4ccc(O)c(CC=C(C)C)c4)c(=O)oc3c2C)OC1(C)C [Novobiocin sodium (Albamycin)]
- inhibition at 10 µM: -0.631%

Compound: C[C@@H]1[C@H](O)[C@@H](C)/C=C/C=C/CC/C=C/C=C/C=C/C=C/[C@H](O[C@@H]2O[C@H](C)[C@@H](O)[C@H](N)[C@@H]2O)C[C@@H]2O[C@](O)(C[C@@H](O)[C@H](O)CC[C@@H](O)C[C@@H](O)C[C@@H](O)CC(=O)O[C@H]1C)C[C@H](O)[C@H]2C(=O)O [Nystatin (Mycostatin)]
- inhibition at 10 µM: 4%

Compound: C#Cc1cccc(Nc2ncnc3cc(OCCOC)c(OCCO)cc23)c1 [OSI-420 (Desmethyl Erlotinib)]
- inhibition at 10 µM: -0.167%

Compound: CC1COc2c(N3CCN(C)CC3)c(F)cc3c(=O)c(C(=O)O)cn1c23 (stereo not shown) [Ofloxacin (Floxin)]
- inhibition at 10 µM: -0.567%

Compound: Cc1cc2c(s1)Nc1ccccc1N=C2N1CCN(C)CC1 [Olanzapine (Zyprexa)]
- inhibition at 10 µM: 12.7%

Compound: CC1(C)CC[C@]2(C(=O)O)CC[C@]3(C)C(=CC[C@@H]4[C@@]5(C)CC[C@H](O)C(C)(C)[C@@H]5CC[C@]43C)[C@@H]2C1 [Oleanolic Acid (Caryophyllin)]
- inhibition at 10 µM: -2%

Compound: CN(C)CC/C=C1/c2ccccc2COc2ccc(CC(=O)O)cc21 [Olopatadine hydrochloride (Opatanol)]
- inhibition at 10 µM: -8.38%

Compound: C=C1C(=O)[C@]23[C@H](O)[C@H]1CC[C@H]2[C@@]12CO[C@]3(O)[C@@H](O)[C@@H]1C(C)(C)CC[C@@H]2O [Oridonin (Isodonol)]
- inhibition at 10 µM: -2.85%

Compound: CCCCCCCCCCC[C@@H](C[C@@H]1OC(=O)[C@H]1CCCCCC)OC(=O)[C@H](CC(C)C)NC=O [Orlistat (Alli, Xenical)]
- inhibition at 10 µM: -9.87%

Compound: O=C(O)c1cc(=O)[nH]c(=O)[nH]1 [Orotic acid (6-Carboxyuracil)]
- inhibition at 10 µM: -3.32%

Compound: COc1ccc2ccc(=O)oc2c1CC=C(C)C [Osthole (Osthol)]
- inhibition at 10 µM: -1.21%
